Test results as given in ChEMBL document CHEMBL5729352, “Broad spectrum antiviral compositions and methods” (2022).
pIC50: −log10 of the molar value.

Experiment: Assessing Antiviral Activity Against Human Cytomegalovirus (HCMV): To assess their antiviral activity, some compounds were tested against human cytomegalovirus (HCMV) in vitro. Human […] cells were grown to confluency (˜1.0×10^4 cells/well) in 96-well plate format in Dulbecco's Modified Eagle Medium (DMFM) supplemented with 10% fetal bovine serum (FBS) 2 mM L-glutamine, 0.1 mM non-essential amino acids, 10 mM HEPES, and 100 U/ml each of penicillin and streptomycin and infected with an HCMV variant expressing mCherry tagged pUL99 (the product of late viral UL99 gene) at a multiplicity of 0.01 infectious unit (IU) per cell. Assays were performed in triplicate. One hour later, medium of the cells was replaced with fresh medium containing the indicated compounds at 25, 12.5, 6.25, 3.13, 1.56, 0.78, 0.39 μM or the carrier in which the compounds are dissolved (DMSO). Final concentration of DMSO was 0.5% in each treatment. Virus yield in the culture was determined at 7 days post infection by quantification of fluorescent (mCherry positive) cells in each well by fluorescent microscopy. Results were plotted using CDD Vault (CDD Vault was developed by Collaborative Drug Discovery, Inc., 1633 Bayshore Hwy, Suite 342, Burlingame, Calif. 94010) in order to calculate IC50s.
Type: cell-based

NC(=O)c1cccc(Cc2cnc(N3CCc4cc5c(cc4C3)OCCO5)s2)c1
pIC50: 5.06
